Laboratory results taken from paper PMC12704298, “Divergent acetyl-CoA binding modes mediate allosteric inhibition of bacterial hybrid-type malic enzymes” (The Journal of Biological Chemistry, 2025).

Legend:
TME = test system: TME; set-up: method as in PMID 10407149; details: cited from earlier work
EcMaeB [1] = target: T1, EcMaeB (Escherichia coli, UniProt P76558); test: Enzyme kinetic parameters (Michaelis-Menten, substrate inhibition, empirical Hill plots); assay type: biochemical; details: EcMaeB; versus malate, not conclusive
T1 construct: His-tag (C); made in house; host or cells: E. coli BL21(DE3)
T1 sequence (P76558 1-759): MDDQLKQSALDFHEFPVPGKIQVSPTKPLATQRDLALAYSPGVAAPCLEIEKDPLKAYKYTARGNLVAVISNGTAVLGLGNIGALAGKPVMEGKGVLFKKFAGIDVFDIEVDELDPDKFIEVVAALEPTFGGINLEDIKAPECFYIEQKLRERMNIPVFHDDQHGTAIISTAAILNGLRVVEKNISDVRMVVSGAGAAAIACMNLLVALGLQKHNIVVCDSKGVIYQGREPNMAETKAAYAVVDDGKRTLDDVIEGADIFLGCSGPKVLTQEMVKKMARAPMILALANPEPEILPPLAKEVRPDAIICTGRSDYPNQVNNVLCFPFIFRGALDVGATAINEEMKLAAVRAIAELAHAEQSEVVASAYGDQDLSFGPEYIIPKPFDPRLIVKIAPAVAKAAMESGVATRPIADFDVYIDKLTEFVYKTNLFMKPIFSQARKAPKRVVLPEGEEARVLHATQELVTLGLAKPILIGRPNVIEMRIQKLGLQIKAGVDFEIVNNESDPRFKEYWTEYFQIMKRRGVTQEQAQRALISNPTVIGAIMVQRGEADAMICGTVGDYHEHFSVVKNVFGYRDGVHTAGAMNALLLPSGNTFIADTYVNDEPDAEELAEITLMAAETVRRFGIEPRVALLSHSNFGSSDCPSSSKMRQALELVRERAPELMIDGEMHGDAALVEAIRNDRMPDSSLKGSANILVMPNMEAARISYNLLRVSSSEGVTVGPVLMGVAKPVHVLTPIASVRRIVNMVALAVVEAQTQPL
Method: (§1) Spectrophotometric assays were used to monitor the oxidative decarboxylation of L-malate to pyruvate using a SpectraMax M2, UV-Visible spectrophotometer (Molecular Devices) operated by SoftMax Pro Software with kinetic mode. All assays recorded the Δabsorbance at 340 nm (NADPH) at 30 °C. Assays were initiated by the addition of enzyme to the otherwise complete reaction mixture. […] Acetyl-CoA was tested at 5 μM.
(§2) For this substrate inhibition model, x should be fixed. […] The plots shown in Fig. S1F were fitted to the empirical Hill equation: v0=Vmax·[malate]^h/(K0.5h+[malate]^h) where K0.5 indicates the substrate concentration for half-saturation. When h is equal to 1, K0.5 matches Michaelis constant Km.

DME = test system: DME; set-up: method as in PMID 10407149; details: cited from earlier work
BbMaeB = target: T2, BbMaeB (Bdellovibrio bacteriovorus, UniProt A0A1Z3N8R4); test: Enzyme kinetic parameters (Michaelis-Menten, substrate inhibition, empirical Hill plots); assay type: biochemical, Bdellovibrio bacteriovorus strain SSB218315; details: versus malate
T2 sequence (A0A1Z3N8R4 1-776): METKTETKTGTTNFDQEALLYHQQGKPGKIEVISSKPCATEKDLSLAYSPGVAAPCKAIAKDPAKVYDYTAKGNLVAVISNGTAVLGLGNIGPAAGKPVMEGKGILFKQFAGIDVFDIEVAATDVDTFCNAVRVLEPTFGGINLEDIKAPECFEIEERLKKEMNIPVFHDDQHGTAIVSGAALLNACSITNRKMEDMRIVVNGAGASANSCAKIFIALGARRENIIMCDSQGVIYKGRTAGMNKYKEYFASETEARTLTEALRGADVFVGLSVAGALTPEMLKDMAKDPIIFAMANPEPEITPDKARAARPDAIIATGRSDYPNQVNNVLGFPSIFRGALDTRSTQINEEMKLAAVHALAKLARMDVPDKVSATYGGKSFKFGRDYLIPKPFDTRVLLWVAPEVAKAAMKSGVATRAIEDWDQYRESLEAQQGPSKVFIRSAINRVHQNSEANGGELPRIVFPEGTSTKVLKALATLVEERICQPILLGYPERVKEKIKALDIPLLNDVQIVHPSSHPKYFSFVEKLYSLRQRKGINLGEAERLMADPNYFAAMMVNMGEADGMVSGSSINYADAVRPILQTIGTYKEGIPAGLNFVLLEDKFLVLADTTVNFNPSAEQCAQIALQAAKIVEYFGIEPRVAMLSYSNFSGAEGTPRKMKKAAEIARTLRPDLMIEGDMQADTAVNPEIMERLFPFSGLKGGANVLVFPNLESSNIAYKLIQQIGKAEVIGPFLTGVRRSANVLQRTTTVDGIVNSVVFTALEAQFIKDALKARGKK
Method: as §1, §2

BbMaeB-SSB = BbMaeB-SSB (Bdellovibrio bacteriovorus, UniProt A0A1Z3N8R4); test: Acetyl-CoA IC50 plot against MaeB activity (spectrophotometric NADPH assay); assay type: biochemical, Bdellovibrio bacteriovorus strain SSB218315
Method: as §1
(§3) The IC50 plot for Acetyl-CoA against MaeB activity was obtained by varying acetyl-CoA concentrations. The assay was performed in the standard reaction condition with 100 nM final enzyme concentration. The data were fitted to the four-parameter logistic model: v0=Bottom+Top−Bottom/1+([Acetyl-CoA]/IC50)^h where h means the Hill slope value and “Top” and “Bottom” corresponds to the maximum and minimum v0 of the fitted curve, respectively ([81]). Fitting was performed using Rstudio.

EcMaeB R482A = test system: T3, EcMaeB R482A; test: %Activity assay with 5 μM acetyl-CoA; assay type: biochemical, Escherichia coli
T3 construct: His-tag (C); made in house; host or cells: E. coli BL21(DE3)
Method: (§4) Spectrophotometric assays were used to monitor the oxidative decarboxylation of L-malate to pyruvate using a SpectraMax M2, UV-Visible spectrophotometer (Molecular Devices) operated by SoftMax Pro Software with kinetic mode. All assays recorded the Δabsorbance at 340 nm (NADPH) at 30 °C. Assays were initiated by the addition of enzyme to the otherwise complete reaction mixture. […] Acetyl-CoA was tested at 5 μM. The results are presented as “%Activity”: a percentage of the measured activity in the presence of effector compared to the measured activity of MaeB under standard reaction conditions.

EcMaeB Y510A = test system: T4, EcMaeB Y510A; test: %Activity assay with 5 μM acetyl-CoA; assay type: biochemical, Escherichia coli
T4 construct: His-tag (C); made in house; host or cells: E. coli BL21(DE3)
Method: as §4

EcMaeB R475A = test system: T5, EcMaeB R475A; test: %Activity assay with 5 μM acetyl-CoA; assay type: biochemical, Escherichia coli
T5 construct: His-tag (C); made in house; host or cells: E. coli BL21(DE3)
Method: as §4

EcMaeB R475A/R482A/Y510A = test system: T6, EcMaeB R475A/R482A/Y510A; test: %Activity assay with 5 μM acetyl-CoA; assay type: biochemical, Escherichia coli
T6 construct: His-tag (C); made in house; host or cells: E. coli BL21(DE3)
Method: as §4

EcMaeB R475A/Y510A = test system: T7, EcMaeB R475A/Y510A; test: %Activity assay with 5 μM acetyl-CoA; assay type: biochemical, Escherichia coli
T7 construct: His-tag (C); made in house; host or cells: E. coli BL21(DE3)
Method: as §4

EcMaeB R475A/R482A = test system: T8, EcMaeB R475A/R482A; test: %Activity assay with 5 μM acetyl-CoA; assay type: biochemical, Escherichia coli
T8 construct: His-tag (C); made in house; host or cells: E. coli BL21(DE3)
Method: as §4

EcMaeB WT = test system: T9, EcMaeB WT; test: %Activity assay with 5 μM acetyl-CoA; assay type: biochemical, Escherichia coli
T9 construct: His-tag (C); made in house; host or cells: E. coli BL21(DE3)
Method: as §4

EcMaeB R482A/Y510A = test system: T10, EcMaeB R482A/Y510A; test: %Activity assay with 5 μM acetyl-CoA; assay type: biochemical, Escherichia coli
T10 construct: His-tag (C); made in house; host or cells: E. coli BL21(DE3)
Method: as §4

EcMaeB [2] = target: T1, EcMaeB; test: Acetyl-CoA IC50 plot against MaeB activity (spectrophotometric NADPH assay); assay type: biochemical
Method: as §1, §3

AbMaeB1 = test system: AbMaeB1; set-up: method as in PMID 32485238; details: AbMaeB1, compared to EcMaeB and BbMaeB; cited from earlier work
BbMaeB-HD = test system: BbMaeB-HD; set-up: method as in PMID 33623032; details: earlier study; cited from earlier work
[3] = 5 mM L-malate, 0.5 mM NADP+, 1 μM enzyme
[4] = relative to WT without acetyl-CoA

In the case of CC(=O)SCCNC(=O)CCNC(=O)[C@H](O)C(C)(C)COP(=O)(O)OP(=O)(O)OC[C@H]1O[C@@H](n2cnc3c(N)ncnc32)[C@H](O)[C@@H]1OP(=O)(O)O [acetyl-CoA, acetyl coenzyme A], the “allosteric regulation of TME” value (TME) is given as “does not show any allosteric regulation”, the mode of inhibition (EcMaeB [1]) is given as “may follow a non-competitive mode” and the “effect on DME activity” value (DME) is given as “inhibited”. The mode of inhibition (BbMaeB) was “non-competitive”, the “Hill slope factor derived from the IC50 curve” value (BbMaeB-SSB; BbMaeB) was “greater than one” and the IC50 (BbMaeB-SSB; BbMaeB-SSB, 5 mM L-malate, 0.5 mM NADP+, 5 mM MgCl2, 100 nM enzyme, 30 °C) was 131 ± 4 nM. For the same molecule, the “effect of acetyl-CoA on activity” value (EcMaeB R482A) was “did not change their activity”, the “NADP^+ production, With Acetyl-CoA” value (EcMaeB R482A; [3]) was 8.4 ± 1.4 µM/min and the “Activity (%), With Acetyl-CoA” value (EcMaeB R482A; [4]) was 32.3 ± 5.5%. The “effect of acetyl-CoA on activity” value (EcMaeB Y510A) was “insensitive to allosteric inhibition”, the “NADP^+ production, With Acetyl-CoA” value (EcMaeB Y510A; [3]) was 19.4 ± 4.0 µM/min and the “Activity (%), With Acetyl-CoA” value (EcMaeB Y510A; [4]) was 74.0 ± 15.4%. The “effect of acetyl-CoA on activity” value (EcMaeB R475A) was “insensitive to allosteric inhibition”, the “NADP^+ production, With Acetyl-CoA” value (EcMaeB R475A; [3]) was 21.6 ± 3.7 µM/min and the “Activity (%), With Acetyl-CoA” value (EcMaeB R475A; [4]) was 82.4 ± 14.0%. The “effect of acetyl-CoA on activity” value (EcMaeB R475A/R482A/Y510A) was “did not change their activity”, the “NADP^+ production, With Acetyl-CoA” value (EcMaeB R475A/R482A/Y510A; [3]) was 10.3 ± 0.4 µM/min and the “Activity (%), With Acetyl-CoA” value (EcMaeB R475A/R482A/Y510A; [4]) was 39.5 ± 1.4%. For the same molecule, the “NADP^+ production, With Acetyl-CoA” value (EcMaeB R475A/Y510A; [3]) was 31.9 ± 2.0 µM/min, the “Activity (%), With Acetyl-CoA” value (EcMaeB R475A/Y510A; [4]) was 121.9 ± 7.6% and the “effect of acetyl-CoA on activity” value (EcMaeB R475A/R482A) was “did not change their activity”. For the same molecule, the “NADP^+ production, With Acetyl-CoA” value (EcMaeB R475A/R482A; [3]) was 10.7 ± 0.5 µM/min, the “Activity (%), With Acetyl-CoA” value (EcMaeB R475A/R482A; [4]) was 40.8 ± 2.0% and the “effect of acetyl-CoA on activity” value (EcMaeB WT) was “reduced the activity by about half”. For the same molecule, the “NADP^+ production, With Acetyl-CoA” value (EcMaeB WT; [3]) was 12.1 ± 2.2 µM/min, the “Activity (%), With Acetyl-CoA” value (EcMaeB WT; [4]) was 46.4 ± 8.5% and the “effect of acetyl-CoA on activity” value (EcMaeB R482A/Y510A) was “did not change their activity”. The “NADP^+ production, With Acetyl-CoA” value (EcMaeB R482A/Y510A; [3]) was 7.0 ± 0.1 µM/min, the “Activity (%), With Acetyl-CoA” value (EcMaeB R482A/Y510A; [4]) was 26.7 ± 0.5% and the “Hill slope factor derived from the IC50 curve” value (EcMaeB [2]) was “greater than one”. For the same molecule, the IC50 (EcMaeB [2]; 5 mM L-malate, 0.5 mM NADP+, 5 mM MgCl2, 100 nM enzyme, 30 °C) was 102000 ± 4920 nM, the “allosteric inhibition of AbMaeB1” value (AbMaeB1) was “requires higher concentrated acetyl-CoA to show allosteric inhibition” and the IC50 (BbMaeB-HD) was 453 ± 19 nM.
